Results taken from patent US6870069B2, “Phenyloxyaniline derivatives” (National Institute of Radiological Sciences, priority 2003, dated 2005).

Columns and labels:
[1] = target: T1, peripheral benzodiazepine receptor (PBR) (Rattus norvegicus, UniProt P16257); test: In vitro affinity to PBR: displacement of [11C]DAA1106 binding on rat brain sections (autoradiography, olfactory bulb ROI); details: for IC50: [11C]DAA1106 1 nM, rat brain sections, olfactory bulb, 37° C. 30 minutes, probit method
T1 construct: Sagittal sections of the rat were prepared using Crystat microtome; from tissue; host or cells: rat brain sagittal sections (ROI: olfactory bulb)
Method: Under anesthetization with ether, male Sprague-Dawley rats (250 to 300 g; n=4) were slaughtered and the brain was quickly cut and frozen in dry ice. Sagittal sections of the rat were prepared using Crystat microtome (MICROM HM560, Carl Zeiss GmbH, Germany). The sections were previously incubated in a 50 mM Tris buffer (pH=7.4) for 30 minutes. After that, the sections were taken out and again incubated at 37° C. for 30 minutes in 50 mM Tris buffer (pH=7.4) containing each of the following reagents at the same time.
After completion of the incubation, the section was taken out and dipped in an ice-cooled Tris buffer for 2 minutes twice. The section was dipped in ice-cooled distilled water and then dried. […] A region of interest (ROI) was defined as an olfactory bulb and radioactivity was expressed in terms of a photo-stimulated-luminescence (PSL)/mm^2 region. Specific binding of [^11C]DAA1106 in the presence of DAA1106, PK11156, FMDAA1106 and FEDAA1106 of various concentrations was determined and IC50 (nM) of those reagents was calculated by a probit method.

[2] = target: T2, central benzodiazepine receptor (CBR); test: Affinity to CBR using [11C]flumazenil, a selective ligand for CBR; format: binding, rat; details: [11C]flumazenil
T2 construct: IC50 CBR; other: [11C]flumazenil
Method: (§1) On the other hand, affinity of FMDAA1106 and FEDAA1106 to central benzodiazepine receptor (CBR) was determined (Table 1) using [^11C]flumazenil which is a selective ligand for CBR. As a result, affinity of FEDAA1106 and FMDAA1106 to CBR was not less than 10 μM and was about 10,000-fold weaker than the affinity of PBR. […] Incidentally, partition coefficients (log P) of the two ligands were measured by an octanol/water (pH 7.4) partition method.

[3] = Partition coefficient (log P) by octanol/water (pH 7.4) partition method; format: physicochemical
Method: as §1

[4] = tested on: central benzodiazepine receptor (CBR); test: Affinity to CBR using [11C]flumazenil, a selective ligand for CBR; format: binding, rat; details: CBR versus PBR selectivity
Method: as §1

IC50 [1] | IC50 [2] | logP [3] | affinity to PBR as compared with DAA1106 ([1]; relative to DAA1106) | affinity to PBR as compared with PK11195 ([1]; relative to PK11195) | affinity to CBR weaker than the affinity of PBR [4] | SMILES
1.62 nM | > 10000 nM | 3.65 |  |  |  | COc1ccc(OC)c(CN(C(C)=O)c2cc(F)ccc2Oc2ccccc2)c1 [DAA1106, N-(2,5-dimethoxybenzyl)-N-(5-fluoro-2-phenoxyphenyl)acetamide, reference compound]
0.77 nM | > 10000 nM | 3.81 | two-fold higher affinity | about ten-fold stronger affinity | about 10,000 fold | COc1ccc(OCCF)c(CN(C(C)=O)c2cc(F)ccc2Oc2ccccc2)c1 [FEDAA1106, N-[2-(2-fluoro)ethyl-5-methoxybenzyl]-N-(5-fluoro-2-phenoxyphenyl)acetamide]
 | > 10000 nM |  |  |  |  | CCC(C)N(C)C(=O)c1cc2ccccc2c(-c2ccccc2Cl)n1 (stereo not shown) [PK11195, N-methyl-N-(1-methylpropyl)-1-(2-chlorophenyl)-isoquinoline-3-carboxamide, reference compound]
